Patent US20070128285A1, “Pharmaceutical composition for oral administration” (priority 2005, published 2007)

Assay: Stability of setron drug aqueous solutions (0.1 w/w %) at pH 8 to 3, stored at 40° C. for three months
Format: physicochemical
Details: 0.1 w/w % aqueous solution
Experimental: The present inventors have investigated the stability of each setron drug (azasetron, granisetron, tropisetron, ramosetron, or ondansetron) in the aqueous solution of pH 8 to3. That is, an aqueous solution of each setron drug (0.1 w/w %) was adjusted to various pH values (pH 8 to 3) with hydrochloric acid or sodium hydroxide. After storing at 40° C. for three months, the external appearance and taste of the solution were observed. As a result, for each of the setron drugs, the aqueous solution of pH 8 is colored faint yellow, but the aqueous solution of pH 3 to 7 is colorless.

[1] = pH 3 to 7, stored at 40° C. for three months
[2] = pH 8, stored at 40° C. for three months

| SMILES | external appearance (color) of the aqueous solution [1] | external appearance (color) of the aqueous solution [2] |
| --- | --- | --- |
| Cn1cc(C(=O)[C@@H]2CCc3nc[nH]c3C2)c2ccccc21 [ramosetron] | colorless | faint yellow |
| CN1[C@@H]2CC[C@H]1C[C@@H](OC(=O)c1c[nH]c3ccccc13)C2 [tropisetron] | colorless | faint yellow |
| CN1C2CCCC1CC(NC(=O)c1nn(C)c3ccccc13)C2 (stereo not shown) [granisetron] | colorless | faint yellow |
| CN1C(=O)COc2c(C(=O)NC3CN4CCC3CC4)cc(Cl)cc21 (stereo not shown) [azasetron] | colorless | faint yellow |
| Cc1nccn1CC1CCc2c(c3ccccc3n2C)C1=O (stereo not shown) [ondansetron] | colorless | faint yellow |
